# Results taken from ChEMBL document CHEMBL3885861, “Open TG-GATES”.
# Organism: Rattus norvegicus
# Test: Open TG-GATES - Regimen: Daily Repeat
# Format: toxicity, organism-based, Sprague-Dawley
# Design: regimen Daily Repeat, gender Male, age 6 weeks
# Conditions: in vivo, po, route gavage; for gamma-GTP / ALP / ALT / AST / BUN / CRE / Ca / Cl / DBIL / GLC / IP / K / LDH / Na / PL / RALB / TBIL / TC / TG / TP: tissue Plasma; for KIDNEY_L / KIDNEY_R / KIDNEY_TOTAL: tissue Kidney
# [1] = 25 mg/kg, 72 h, dose level Low, time 3 day
# [2] = 25 mg/kg, 72 h, tissue Blood, dose level Low, time 3 day
# [3] = 25 mg/kg, […], dose level Low, time 7 day
# [4] = 25 mg/kg, […], dose level Low, time 14 day
# [5] = 25 mg/kg, […], dose level Low, time 28 day
# [6] = 25 mg/kg, […], tissue Blood, dose level Low, time 7 day
# [7] = 25 mg/kg, […], tissue Blood, dose level Low, time 14 day
# [8] = 25 mg/kg, […], tissue Blood, dose level Low, time 28 day
smiles,measurement,setting,value
O=C1CN(/N=C/c2ccc(-c3ccc([N+](=O)[O-])cc3)o2)C(O)=N1 [DANTROLENE],gamma-GTP,"0 mg/kg, […], dose level Control, time 28 day",1.2 IU/L
same,TERMINAL_BW,[1],228.7 g
same,APTT,[2],19.4 s
same,Bas,[2],0%
same,Eos,[2],1%
same,Fbg,[2],221.4 mg/dL
same,Hb,[2],13.7 g/dL
same,Lym,[2],78%
same,MCH,[2],21.8 pg
same,MCHC,[2],33.8%
same,MCV,[2],64.6 fL
same,Mono,[2],8.4%
same,Plat,[2],138.1 x10_4/uL
same,RBC,[2],624.8 x10_4/ul
same,Ret,[2],5.3%
same,WBC,[2],107 x10_2/uL
same,KIDNEY_L,[1],1.1 g
same,KIDNEY_R,[1],1.1 g
same,KIDNEY_TOTAL,[1],2.2 g
same,ALP,[1],873.2 IU/L
same,ALT,[1],37.8 IU/L
same,AST,[1],75 IU/L
same,BUN,[1],19.6 mg/dL
same,CRE,[1],0.6 mg/dL
same,Ca,[1],10.8 mg/dL
same,Cl,[1],104.4 meq/L
same,DBIL,[1],0.004 mg/dL
same,GLC,[1],194.8 mg/dL
same,IP,[1],6.2 mg/dL
same,K,[1],4.5 meq/L
same,LDH,[1],102.4 IU/L
same,Na,[1],139.8 meq/L
same,PL,[1],151.8 mg/dL
same,RALB,[1],4 g/dL
same,TBIL,[1],0.3 mg/dL
same,TC,[1],73.8 mg/dL
same,TG,[1],122.4 mg/dL
same,TP,[1],5.8 g/dL
same,gamma-GTP,[1],0.6 IU/L
same,TERMINAL_BW,[3],252.5 g
same,TERMINAL_BW,[4],308.4 g
same,TERMINAL_BW,[5],376.7 g
same,APTT,[6],16.1 s
same,Bas,[6],0%
same,Eos,[6],1.2%
same,Fbg,[6],215 mg/dL
same,Hb,[6],14.4 g/dL
same,Lym,[6],79%
same,MCH,[6],20.9 pg
same,MCHC,[6],33.9%
same,MCV,[6],61.5 fL
same,Mono,[6],8%
same,Plat,[6],108.3 x10_4/uL
same,RBC,[6],689.4 x10_4/ul
same,Ret,[6],4.6%
same,WBC,[6],121.3 x10_2/uL
same,APTT,[7],17.2 s
same,Bas,[7],0%
same,Eos,[7],0.8%
same,Fbg,[7],222.2 mg/dL
same,Hb,[7],14.8 g/dL
same,Lym,[7],85.2%
same,MCH,[7],20.3 pg
same,MCHC,[7],33.8%
same,MCV,[7],60.1 fL
same,Mono,[7],4.8%
same,Plat,[7],122.4 x10_4/uL
same,RBC,[7],726.6 x10_4/ul
same,Ret,[7],3.9%
same,WBC,[7],111.4 x10_2/uL
same,APTT,[8],17.2 s
same,Bas,[8],0%
same,Eos,[8],1%
same,Fbg,[8],211 mg/dL
same,Hb,[8],15.6 g/dL
same,Ht,[8],45.9%
same,Lym,[8],82%
same,MCH,[8],20 pg
same,MCHC,[8],34%
same,MCV,[8],58.9 fL
same,Mono,[8],4.8%
same,Plat,[8],112.7 x10_4/uL
same,RBC,[8],779 x10_4/ul
same,Ret,[8],2.9%
same,KIDNEY_L,[3],1.1 g
same,KIDNEY_R,[3],1.2 g
same,KIDNEY_TOTAL,[3],2.3 g
same,KIDNEY_L,[4],1.2 g
same,KIDNEY_R,[4],1.3 g
same,KIDNEY_TOTAL,[4],2.5 g
same,KIDNEY_L,[5],1.4 g
same,KIDNEY_R,[5],1.5 g
same,KIDNEY_TOTAL,[5],2.9 g
same,ALP,[3],808 IU/L
same,ALT,[3],35 IU/L
same,AST,[3],68.8 IU/L
same,BUN,[3],17 mg/dL
same,CRE,[3],0.6 mg/dL
same,Ca,[3],10.8 mg/dL
same,Cl,[3],107.8 meq/L
same,DBIL,[3],0.014 mg/dL
same,GLC,[3],192.8 mg/dL
same,IP,[3],6.1 mg/dL
same,K,[3],5 meq/L
same,LDH,[3],121.4 IU/L
same,Na,[3],138.8 meq/L
same,PL,[3],151.4 mg/dL
same,RALB,[3],3.9 g/dL
same,TBIL,[3],0.4 mg/dL
same,TC,[3],77 mg/dL
same,TG,[3],92.6 mg/dL
same,TP,[3],5.7 g/dL
same,gamma-GTP,[3],1 IU/L
same,ALP,[4],770 IU/L
same,ALT,[4],33.2 IU/L
same,AST,[4],69.6 IU/L
same,BUN,[4],18.6 mg/dL
same,CRE,[4],0.6 mg/dL
same,Ca,[4],10.6 mg/dL
same,Cl,[4],104.2 meq/L
same,DBIL,[4],0.01 mg/dL
same,GLC,[4],198 mg/dL
same,IP,[4],6.1 mg/dL
same,K,[4],4.3 meq/L
same,LDH,[4],112.8 IU/L
same,Na,[4],141.6 meq/L
same,PL,[4],148.8 mg/dL
same,RALB,[4],3.9 g/dL
same,TBIL,[4],0.3 mg/dL
same,TC,[4],67.8 mg/dL
same,TG,[4],150.4 mg/dL
same,TP,[4],6 g/dL
same,gamma-GTP,[4],0.8 IU/L
same,ALP,[5],601.2 IU/L
same,ALT,[5],28.6 IU/L
same,AST,[5],55.8 IU/L
same,BUN,[5],18.2 mg/dL
same,CRE,[5],0.5 mg/dL
same,Ca,[5],10.6 mg/dL
same,Cl,[5],107.2 meq/L
same,DBIL,[5],0.018 mg/dL
same,GLC,[5],179 mg/dL
same,IP,[5],5 mg/dL
same,K,[5],4.3 meq/L
same,LDH,[5],106.6 IU/L
same,Na,[5],140.4 meq/L
same,PL,[5],154.8 mg/dL
same,RALB,[5],4 g/dL
same,TBIL,[5],0.3 mg/dL
same,TC,[5],76.4 mg/dL
same,TG,[5],145.8 mg/dL
same,TP,[5],6.2 g/dL
